Assays:
Type in all cases: in vivo, mouse
IL-4 = assay: Measurement of IL-4 expression level by ELISA; conditions: NC/Nga mice, injection or skin application for 4 weeks, serum and splenocyte, vs negative control
Procedure: (§1) Serum was prepared from blood of main artery. Lymphocytes extracted from spleen were cultured. Briefly, extracted spleen was homogenized, filtered through mesh and single cells was isolated. Red blood cells were lysed in RBC lysis buffer and the supernatant was removed by centrifugation. 1×10^6 cells were cultured in 24-well plate containing RPMI media (1 ml). The experiments were performed in media containing cells cultured for 3 days.
(§2) NC/Nga mice in which atopic dermatitis had been induced were treated with hirsutenone through an injection or skin application for 4 weeks. Blood and spleen were collected from mice and interleukin (IL)-4, IL-5, IL-10 and IL-13 expression level in serum and splenocyte were measured using ELISA. IL-4, IL-5 and IL-13 expression detected in groups of hirsutenone being injected or skin applied was much lower than those of negative control (FIG. 9a, FIG. 9b and FIG. 9c).

IL-5 = assay: Measurement of IL-5 expression level by ELISA; conditions: NC/Nga mice, injection or skin application for 4 weeks, serum and splenocyte, vs negative control
Procedure: as §1, §2

[1] = system: mice in which atopic dermatitis had been induced; assay: Naked-eye observation of atopic dermatitis in animal model
Source text: To examine treatment efficacy of hirsutenone on atopic dermatitis, the present inventors utilized an experimental animal model in which atopic dermatitis was induced by attachment of mite patch to the skin. Briefly, the patch containing a mite-derived ingredient as a human atopic dermatitis-inducing agent was applied to 5-old-week mice. The hairs of their back were partially removed and mite patch was attached. At 2-week post-application, skin damage equivalent to atopic dermatitis was observed. Mite patch was detached at 18 weeks.
In addition to NC/Nga mouse, BABL/c mouse was used as an animal model.
To examine treatment efficacy of hirsutenone on atopic dermatitis, mice in which atopic dermatitis had been induced were treated with hirsutenone through an injection or skin application for 4 weeks. Then, external skin morphology was estimated by naked-eye observation so as to determine whether a symptom of atopic dermatitis was relieved. Each group injected or applied with hirsutenone was compared to a negative control group into which hirsutenone was not administered, resulting in the improvement of a symptom of atopic dermatitis. […] FIG. 5d represents a positive control treated with dexamethasone. […] FIG. 5g represents the result of administration of plancol as positive control.
FIG. 6d represents a positive control treated with dexamethasone. […] FIG. 6g represents the result of administration of plancol as positive control.

iNOS [2] = assay: Measurement of iNOS expression using real-time PCR; conditions: NC/Nga mice, injection or skin application for 4 weeks, epidermal cells
Procedure: (§3) The primers used in Real-time PCR are as follows.
(§4) Total RNA was extracted according to the following steps. Tissue was treated with 1 ml TRIZol reagent and mixed with 200 μl chloroform. After centrifugation at 12,000 rpm for 15 min at 4° C., the supernatant was transferred into a new tube and mixed with ½ vol. of isopropanol. The mixture was again centrifuged at 12,000 rpm for 15 min at 4° C. The supernatant was discarded and total RNA was dissolved in DEPC-water.
(§5) cDNA was prepared according to the following steps. The isolated total RNA was dissolved in 30 μl DEPC-DW and reverse transcription using 3 μg of total RNA as a template was performed in a reaction mixture (20 μl) containing 1 μl of reverse transcriptase, 2 μl of 10× buffer, 2 μl of 10 mM dNTP (dNTP mix), 1 μl of oligo dT primer, 0.5 μl of RNase inhibitor and 4 μl of 25 mM MgCl2.
(§6) Each 2 μl of cDNA prepared was amplified using PCR. PCR reaction was performed by 45 cycles of 1 min at 59° C. and 1 min at 94° C. Finally, the mixtures were incubated at 72° C. for 1 min for extension.
(§7) NC/Nga mice in which atopic dermatitis had been induced were treated with hirsutenone through an injection or skin application for 4 weeks and then mice epidermal cells were collected. To investigate whether hirsutenone has a regulatory activity on immune responses, the expression levels of COX-2 and iNOS were detected using real-time PCR. […]

iNOS [3] = assay: Measurement of iNOS expression level using western blotting; conditions: NC/Nga mice, injection or skin application for 4 weeks, epidermal cells
Procedure: (§8) Skin tissue containing epidermal cells was lysed and centrifuged using a centrifuge. The supernatant was electrophoresized on 15% SDS-PAGE (sodium dodecyl sulfate polyacrylamide gel electrophoresis). For analysis of COX-2 and iNOS, proteins separated on gel electrophoresis were transferred into a nitrocellulose membrane and sequentially incubated with a primary antibody (1:1000 in BSA, rabbit polyclonal anti-COX-2 antibody, rabbit polyclonal iNOS antibody; Chemicon, Calif., USA) and a secondary antibody (1:2000 in BSA, anti-goat IgG, anti-rabbit IgG; Chemicon, Calif., USA).
(§9) NC/Nga mice in which atopic dermatitis had been induced were treated with hirsutenone through an injection or skin application for 4 weeks and mice epidermal cells were collected. To investigate whether hirsutenone has a regulatory activity on immune responses, the expression levels of COX-2 and iNOS were detected using western blotting.

COX-2 [4] = assay: Measurement of COX-2 expression level using western blotting; conditions: NC/Nga mice, injection or skin application for 4 weeks, epidermal cells
Procedure: as §8, §9

eosinophil = assay: Eosinophil count in blood; conditions: NC/Nga mice, injection or skin application for 4 weeks, after vs before administration
Procedure: Mouse blood was collected into capillary tube and 30 μl of mouse whole blood was diluted 6-fold by addition of 150 μl saline. Eosinophils were counted using a Sysmex XE-2100 hematology analyzer. Slide glass smeared with peripheral blood was prepared and stained with Wright-Giemsa. Eosinophil count was carried out by differentially counting 200 leukocytes.
NC/Nga mice in which atopic dermatitis had been induced were treated with hirsutenone through an injection or skin application for 4 weeks. Blood was collected from mice before and after administration or application of hirsutenone, and then eosinophil count was measured.

COX-2 [5] = assay: Measurement of COX-2 expression using real-time PCR; conditions: NC/Nga mice, injection or skin application for 4 weeks, epidermal cells
Procedure: as §3, §4, §5, §6, §7

IgE = assay: Measurement of IgE level by ELISA; conditions: NC/Nga mice, injection or skin application for 4 weeks, vs negative control
Procedure: as §1
NC/Nga mice in which atopic dermatitis had been induced were treated with hirsutenone through an injection or skin application for 4 weeks. Blood was collected from mice and IgE expression level was measured using ELISA.

IL-13 = assay: Measurement of IL-13 expression level by ELISA; conditions: NC/Nga mice, injection or skin application for 4 weeks, serum and splenocyte, vs negative control
Procedure: as §1, §2

Question: For O=C(/C=C/CCc1ccc(O)c(O)c1)CCc1ccc(O)c(O)c1 [hirsutenone], which IL-4 expression level (IL-4) is on record?
Answer: much lower

Question: What about the IL-5 expression level (IL-5) of the same compound?
Answer: much lower

Question: What about the “symptom of atopic dermatitis (naked-eye observation)” value (“symptom of atopic dermatitis” below) ([1]; BABL/c mice, 0.1% hirsutenone by injection, vs PBS negative control) of the same compound?
Answer: much more relieved

Question: And the “symptom of atopic dermatitis” value ([1]; BABL/c mice, 1% hirsutenone by injection, vs PBS negative control)?
Answer: much more relieved

Question: And the “symptom of atopic dermatitis” value ([1]; BABL/c mice, 1% hirsutenone ointment applied to skin, vs composition without active ingredient)?
Answer: much more alleviated

Question: And the “symptom of atopic dermatitis” value ([1]; NC/Nga mice, 0.1% hirsutenone by injection, 4 weeks, vs PBS negative control)?
Answer: much more improved

Question: And the “symptom of atopic dermatitis” value ([1]; NC/Nga mice, 1% hirsutenone by injection, 4 weeks, vs PBS negative control)?
Answer: much more improved

Question: And the “symptom of atopic dermatitis” value ([1]; NC/Nga mice, 1% hirsutenone ointment applied to skin, 4 weeks, vs composition without active ingredient)?
Answer: much more remarkably improved

Question: And the “iNOS expression level (real-time PCR)” value (iNOS [2])?
Answer: significantly decreased

Question: What about the “iNOS expression level (western blotting)” value (iNOS [3]) of the same compound?
Answer: reduced

Question: What about the “COX-2 expression level (western blotting)” value (COX-2 [4]) of the same compound?
Answer: reduced

Question: And the “number of eosinophil in blood” value (eosinophil)?
Answer: more severely reduced

Question: And the “COX-2 expression level (real-time PCR)” value (COX-2 [5])?
Answer: significantly decreased

Question: And the “IgE expression level in blood” value (IgE)?
Answer: remarkably lower

Question: And the IL-13 expression level (IL-13)?
Answer: much lower

Reference: patent publication US8012486B2, “Composition for treating atopic dermatitis comprising hirsutenone as an active ingredient” (Chung-Ang University Industry Academic Cooperation …, priority 2009, dated 2011)
